Earlier results in US20090246278A1, “USE OF ESSENTIAL OILS TO REDUCE BENZODIAZEPINE REQUIREMENTS DURING MEDICAL PROCEDURES” (priority 2008, published 2009).

Test system: GABA receptors
Conditions: effects antagonized by flumazenil

Structure (SMILES) | GABA-ergic properties
CC1=CCC2CC1C2(C)C (stereo not drawn) [α-pinene, alpha-pinene] | exert GABA-ergic properties
C=C1CCC2CC1C2(C)C (stereo not drawn) [β-pinene, beta-pinene] | exert GABA-ergic properties
